Test results: patent publication US8304419B2, “Chemical compounds” (priority 2007, dated 2012)
Structures can show the parent of a compound that is named as a salt.

What follows are compounds tested on HIV wild type (WTRVA) (assay: HeLa cell assay, wild type virus (WTRVA)). Conditions: Human immunodeficiency virus 1, HeLa, HeLa cell assay; read-out: IC50 against WTRVA.
Type: cell-based, HIV-1
Design: scale not given here
In the case of `C=CCc1cc(C#N)cc(Oc2c(Cl)ccc(Cn3cnc4nc[nH]c4c3=O)c2F)c1` [Example 373, 3-({6-chloro-2-fluoro-3-[(6-oxo-6,7-dihydro-1H-purin-1-yl)methyl]phenyl}oxy)-5-(2-propen-1-yl)benzonitrile], the IC50 is reported as less than 0.01 µM.
With `N#Cc1cc(Cl)cc(Oc2c(Cl)ccc(CNC(=O)c3[nH]cnc3Cl)c2F)c1Cl` [Example 144, 4-chloro-N-({4-chloro-3-[(2,5-dichloro-3-cyanophenyl)oxy]-2-fluorophenyl}methyl)-1H-imidazole-5-carboxamide] the IC50 was less than 0.01 µM.

Same assay, conditions: Human immunodeficiency virus 1, HeLa, HeLa-CD4-LTR-β-gal cells, wild type virus; read-out: WTRVA activity level
With `COC(=O)c1ccc(C(=O)NCc2ccc(Cl)c(Oc3cc(Cl)cc(C#N)c3)c2F)cc1` [Example 15, Methyl 4-{[({4-chloro-3-[(3-chloro-5-cyanophenyl)oxy]-2-fluorophenyl}methyl)amino]carbonyl}benzoate] the IC50 was 0.01 to 1 µM.
Work on `COc1cc2cc(C(=O)NCc3ccc(Cl)c(Oc4cc(Cl)cc(C#N)c4)c3F)[nH]c2cn1` [Example 46, N-({4-chloro-3-[(3-chloro-5-cyanophenyl)oxy]-2-fluorophenyl}methyl)-5-(methyloxy)-1H-pyrrolo[2,3-c]pyridine-2-carboxamide trifluoroacetate] yielded an IC50 of less than 0.01 µM.
Compound `COc1ccc(C(=O)NCc2ccc(Cl)c(Oc3cc(Cl)cc(C#N)c3)c2)c(OC)c1` [Example 6, N-({4-chloro-3-[(3-chloro-5-cyanophenyl)oxy]phenyl}methyl)-2,4-bis(methyloxy)benzamide] has an IC50 of 0.01 to 1 µM.
For `N#Cc1cc(Cl)cc(Oc2c(Cl)ccc(CNC(=O)c3[nH]c4cc(Cl)ccc4c3Cl)c2F)c1` [Example 55, 3,6-dichloro-N-({4-chloro-3-[(3-chloro-5-cyanophenyl)oxy]-2-fluorophenyl}methyl)-1H-indole-2-carboxamide trifluoroacetate], the IC50 was 0.01 to 1 µM.
Work on `CN(C)c1ccc2[nH]c(C(=O)NCc3ccc(Cl)c(Oc4cc(Cl)cc(C#N)c4)c3F)cc2c1` [Example 126, N-({4-chloro-3-[(3-chloro-5-cyanophenyl)oxy]-2-fluorophenyl}methyl)-5-(dimethylamino)-1H-indole-2-carboxamide] yielded an IC50 of less than 0.01 µM.
In the case of `CCN(CC)S(=O)(=O)c1c[nH]c(C(=O)NCc2ccc(Cl)c(Oc3cc(Cl)cc(C#N)c3)c2F)c1` [Example 76, N-({4-chloro-3-[(3-chloro-5-cyanophenyl)oxy]-2-fluorophenyl}methyl)-4-[(diethylamino)sulfonyl]-1H-pyrrole-2-carboxamide trifluoroacetate], the IC50 is reported as 0.01 to 1 µM.
Work on `CN(Cc1ccc(Cl)c(Oc2cc(Cl)cc(C#N)c2)c1F)C(=O)c1ccc[nH]1` [Example 129, N-({4-chloro-3-[(3-chloro-5-cyanophenyl)oxy]-2-fluorophenyl}methyl)-N-methyl-1H-pyrrole-2-carboxamide] yielded an IC50 of less than 0.01 µM.
`N#Cc1cc(Cl)cc(Oc2c(Cl)ccc(CNC(=O)c3[nH]c4ccccc4c3Br)c2F)c1` [Example 53, 3-bromo-N-({4-chloro-3-[(3-chloro-5-cyanophenyl)oxy]-2-fluorophenyl}methyl)-1H-indole-2-carboxamide] was tested, and the IC50 was 0.01 to 1 µM.
Compound `N#Cc1cc(Cl)cc(Oc2c(Cl)ccc(CNC(=O)c3cc4cc([N+](=O)[O-])ccc4[nH]3)c2F)c1` [Example 19, N-({4-chloro-3-[(3-chloro-5-cyanophenyl)oxy]-2-fluorophenyl}methyl)-5-nitro-1H-indole-2-carboxamide] has an IC50 of less than 0.01 µM.
`N#Cc1cc(Cl)cc(Oc2c(Cl)ccc(CNC(=O)c3n[nH]c([N+](=O)[O-])c3Br)c2F)c1` [Example 69, 4-bromo-N-({4-chloro-3-[(3-chloro-5-cyanophenyl)oxy]-2-fluorophenyl}methyl)-5-nitro-1H-pyrazole-3-carboxamide trifluoroacetate] gave an IC50 of 0.01 to 1 µM.
Compound `CC(C)c1nc(Cl)c(C(=O)NCc2ccc(Cl)c(Oc3cc(Cl)cc(C#N)c3)c2F)[nH]1` [Example 135, 4-chloro-N-({4-chloro-3-[(3-chloro-5-cyanophenyl)oxy]-2-fluorophenyl}methyl)-2-(1-methylethyl)-1H-imidazole-5-carboxamide trifluoroacetate] has an IC50 of less than 0.01 µM.
